Measurements from ChEMBL document CHEMBL1144092, “5-Oxonoraporphines from Mitrephora cf. maingayi” (1999).
In brackets after ≈: the same amount, converted by molar mass. Activity calls are given as the source filed them. The calls are words filed in the database; no cut-off is given here.

Legend:
[1] = system: Aedes aegypti; assay: Larvicidal activity against Aedes aegypti larvae; format: functional
[2] = system: P388; assay: Cytotoxicity against mouse P388 cells; format: functional; conditions: P388, read-out: ED50

| SMILES | Activity [1] | EC50 [2] | LC50 [1] |
| --- | --- | --- | --- |
| COc1c(O)c2c3c(c1OC)-c1ccccc1C[C@H]3NC(=O)C2 | inactive | > 30 µg/mL |  |
| COc1c(OC)c(OC)c2c3c(cc4ccccc42)NC(=O)C(=O)c13 [OUREGIDIONE] |  |  | 10000 µg/mL (≈ 29.6 mM) |
| COc1c2c3c(c(OC)c1OC)-c1ccccc1C[C@H]3NC(=O)C2 | inactive | > 30 µg/mL |  |
